Assay results: US20250320213A1, “Nitrogen-Containing Heterocyclic Compounds” (Pfizer Inc., priority 2024, published 2025)
Where a name gives a salt, the structure may show the parent alone. Read-outs that look alike come from different tables or passages of the source.

Experiments:
[1] = test system: CCL17 secretion in peripheral human whole blood; assay: Human Whole Blood (HWB) CCL17 TR-FRET Assay (IL-13 stimulated CCL17 secretion); assay type: cell-based
Method in brief: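 Measured here: CCL17 in serum by TR-FRET (665/615 nm) after overnight (16 h) room-temperature detection. The blood, heparinized and compound-treated for 2 h, received IL-13 at 10 ng/mL final and was cultured 48 h at 37 °C.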

STAT6 = biological target: T1, STAT6 (Homo sapiens, UniProt P42226); assay: STAT6 Reporter Luciferase Assay (IL-13 stimulated HaCaT keratinocyte NanoLuc reporter cells); assay type: cell-based; conditions: read-out: Reporter EC50
T1 construct: stably transfected HaCaT keratinocyte cell line, which expresses NanoLuc luciferase reporter gene under the transcriptional control of the STAT6 responsive promoter; endogenous in cells; host or cells: HaCaT keratinocyte reporter cell line (stably transfected with a NanoLuc reporter)
T1 sequence (P42226 1-847): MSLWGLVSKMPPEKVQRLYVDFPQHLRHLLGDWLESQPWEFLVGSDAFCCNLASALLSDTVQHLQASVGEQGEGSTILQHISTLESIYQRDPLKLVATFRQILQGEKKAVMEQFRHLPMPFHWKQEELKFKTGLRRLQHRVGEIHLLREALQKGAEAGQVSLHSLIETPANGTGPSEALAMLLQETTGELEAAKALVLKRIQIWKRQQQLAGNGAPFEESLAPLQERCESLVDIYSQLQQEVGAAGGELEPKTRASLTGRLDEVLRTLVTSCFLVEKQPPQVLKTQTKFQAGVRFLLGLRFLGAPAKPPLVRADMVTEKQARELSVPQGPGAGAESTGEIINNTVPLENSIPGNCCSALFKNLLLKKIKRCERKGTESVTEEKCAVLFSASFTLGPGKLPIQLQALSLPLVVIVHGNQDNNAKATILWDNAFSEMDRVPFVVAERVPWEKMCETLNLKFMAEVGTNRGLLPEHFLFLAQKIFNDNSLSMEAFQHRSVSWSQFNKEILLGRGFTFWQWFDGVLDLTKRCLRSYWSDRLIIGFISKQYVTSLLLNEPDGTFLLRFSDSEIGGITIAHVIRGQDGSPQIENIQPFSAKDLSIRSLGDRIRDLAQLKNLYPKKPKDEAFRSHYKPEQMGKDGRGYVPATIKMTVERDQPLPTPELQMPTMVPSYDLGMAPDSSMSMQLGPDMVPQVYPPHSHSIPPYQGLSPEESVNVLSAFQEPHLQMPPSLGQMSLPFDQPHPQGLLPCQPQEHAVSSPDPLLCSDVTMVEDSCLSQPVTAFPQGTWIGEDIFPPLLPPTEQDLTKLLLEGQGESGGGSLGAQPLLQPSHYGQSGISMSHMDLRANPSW
Method in brief: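 HaCaT cells stably carrying a NanoLuc reporter driven by the STAT6-responsive IL-13Ra2 promoter were preincubated with compounds for 2 h at 37 °C in 2% FBS medium. Cells were then stimulated with 0.12 nM IL-13 for 4 h, and luminescence was read after Nano-Glo substrate. Compounds ran as 11-point 4-fold dilutions in duplicate.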

[2] = IL-13 stimulated HaCaT STAT6 NanoLuc reporter cells
[3] = Homo sapiens, 48 h, human whole blood, 10 ng/mL IL13, 48 hours
[4] = Homo sapiens, 48 h, inhibition of CCL17 secretion in human whole blood, 10 ng/mL IL13, 48 hours
[5] = STAT6 NanoLuc luciferase reporter, IL-13 stimulated HaCaT keratinocyte cells

Structure (SMILES) | EC50 (STAT6; [2]) [nM] | IC50 [1, 3] [nM] | IC50 [1, 4] [nM] | EC50 (STAT6; [5]) [nM] | further results
CC(C)n1nc(C(=O)NCc2ccc(NC(=O)N(C)C)cc2)c2c1CCN(c1ccc(N3CCCC3=O)cn1)C2 [Example 1, N-(4-(3,3-dimethylureido)benzyl)-1-isopropyl-5-(5-(2-oxopyrrolidin-1-yl)pyridin-2-yl)-4,5,6,7-tetrahydro-1H-pyrazolo[4,3-c]pyridine-3-carboxamide] |  |  | 318 | 11 | 
CC(C)n1nc(C(=O)NCc2ccc(NC(=O)N(C)C)cc2)c2c1CCN(c1ccc(C(=O)N(C)C)cn1)C2 [Example 2, 5-(5-(Dimethylcarbamoyl)pyridin-2-yl)-N-(4-(3,3-dimethylureido)benzyl)-1-isopropyl-4,5,6,7-tetrahydro-1H-pyrazolo[4,3-c]pyridine-3-carboxamide] |  |  | 69 | 8 | 
CCn1nc(C(=O)NCc2ccc(NC(=O)N(C)C)cc2)c2c1CCN(c1ccc(C(=O)N(C)C)cn1)C2 [Example 3, 5-(5-(Dimethylcarbamoyl)pyridin-2-yl)-N-(4-(3,3-dimethylureido)benzyl)-1-ethyl-4,5,6,7-tetrahydro-1H-pyrazolo[4,3-c]pyridine-3-carboxamide] |  |  | 104 | 10 | 
CNC(=O)c1ccc(CNC(=O)c2nn(C)c3c2CN(c2ccc(C(=O)N(C)C)cc2)CC3)cc1 [Example 4, 5-(4-(Dimethylcarbamoyl)phenyl)-1-methyl-N-(4-(methylcarbamoyl)benzyl)-4,5,6,7-tetrahydro-1H-pyrazolo[4,3-c]pyridine-3-carboxamide] |  |  | 1110 | 178 | 
Cc1nc(C(=O)NCc2ccc(NC(=O)N(C)C)cc2)c2n1CCN(c1ccc(C(=O)N(C)C)cn1)C2 [Example 5, 7-(5-(Dimethylcarbamoyl)pyridin-2-yl)-N-(4-(3,3-dimethylureido)benzyl)-3-methyl-5,6,7,8-tetrahydroimidazo[1,5-a]pyrazine-1-carboxamide] |  |  |  | 124 | IC50 ([1]; inhibition of CCL17 secretion in human whole blood, 10 ng/mL IL13, 48 hours): 927 nM
CN(C)C(=O)Nc1ccc(CNC(=O)c2nn(C3CC3)c3c2CN(c2ccc(C(=O)N(C)C)cn2)CC3)cc1 [Example 10, 1-Cyclopropyl-5-(5-(dimethylcarbamoyl)pyridin-2-yl)-N-(4-(3,3-dimethylureido)benzyl)-4,5,6,7-tetrahydro-1H-pyrazolo[4,3-c]pyridine-3-carboxamide trifluoroacetate] |  |  | 94 | 11 | 
CC(C)n1nc(C(=O)NCc2ccc(-c3ncc[nH]3)cc2)c2c1CCN(c1ccc(C(=O)N(C)C)cn1)C2 [Example 11, N-(4-(1H-imidazol-2-yl)benzyl)-5-(5-(dimethylcarbamoyl)pyridin-2-yl)-1-isopropyl-4,5,6,7-tetrahydro-1H-pyrazolo[4,3-c]pyridine-3-carboxamide] |  |  | 205 | 16 | 
CN(C)C(=O)Nc1ccc(CNC(=O)c2nn(C)c3c2CN(c2ccc(-c4nccn4C)cn2)CC3)cc1 [Example 12, N-(4-(3,3-Dimethylureido)benzyl)-1-methyl-5-(5-(1-methyl-1H-imidazol-2-yl)pyridin-2-yl)-4,5,6,7-tetrahydro-1H-pyrazolo[4,3-c]pyridine-3-carboxamide] |  |  | 93 | 16 | 
CN(C)C(=O)Nc1ccc(CNC(=O)c2nc(C3CC3)n3c2CN(c2ccc(C(=O)N(C)C)cn2)CC3)cc1 [Example 13, 3-cyclopropyl-7-(5-(dimethylcarbamoyl)pyridin-2-yl)-N-(4-(3,3-dimethylureido)benzyl)-5,6,7,8-tetrahydroimidazo[1,5-a]pyrazine-1-carboxamide] |  |  | 83 | 17 | 

Now from value to molecule, other results behind:

EC50 (STAT6; [2]) [nM] | IC50 [1, 3] [nM] | IC50 [1, 4] [nM] | EC50 (STAT6; [5]) [nM] | Structure (SMILES) | further results
15 |  |  |  | CC(C)n1nc(C(=O)NCc2ccc(NC(=O)N(C)C)cc2)c2c1C(C(F)(F)F)CN(c1ccc(C(=O)N(C)C)cn1)C2 (single isomer, unassigned) [Example 548, rel-(R or S)-5-(5-(Dimethylcarbamoyl)pyridin-2-yl)-N-(4-(3,3-dimethylureido)benzyl)-1-isopropyl-7-(trifluoromethyl)-4,5,6,7-tetrahydro-1H-pyrazolo[4,3-c]pyridine-3-carboxamide] | IC50 ([1]; human whole blood, 10 ng/mL IL13, 48 hours): 199 nM
99 | 1100 |  |  | CC(C)n1nc(C(=O)NCc2ccc(-c3ncc[nH]3)cc2)c2c1[C@H](C)CN(c1ncc(C(=O)N(C)C)cn1)C2 (single isomer, unassigned) [Example 549] | 
11 | 85 |  |  | C[C@@H]1CN(c2ccc(C(=O)N(C)C)cn2)Cc2c(C(=O)NCc3ccc(NC(=O)N(C)C)cc3)nn(CC(F)(F)F)c21 (single isomer, unassigned) [Example 550] | 
12 | 104 |  |  | C[C@@H]1CN(c2ccc(C(=O)N(C)C)cn2)Cc2c(C(=O)NCc3ccc(NC(=O)N(C)C)cc3)nn(C3(C)CC3)c21 (single isomer, unassigned) [Example 551] | 
34 | 87 |  |  | CC(C)n1nc(C(=O)NCc2ccc(NC(=O)N(C)C)cc2)c2c1[C@H](C)CN(c1ncc(C(=O)N(C)C)cn1)C2 (single isomer, unassigned) [Example 552] | 
58 | 196 |  |  | C[C@@H]1CN(c2ccc(C(=O)N(C)C)cn2)Cc2c(C(=O)NCc3ccc(NC(=O)N(C)C)cc3)nn(C3CCOCC3)c21 (single isomer, unassigned) [Example 556] | 
15 | 204 |  |  | C[C@@H]1CN(c2ccc(C(=O)N(C)C)cn2)Cc2c(C(=O)NCc3ccc(NC(=O)N(C)C)cc3)nn(C3CCC3)c21 (single isomer, unassigned) [Example 557] | 
3 |  |  |  | CNC1(C)CCN(C(=O)Nc2ccc(CNC(=O)c3nn(C(C)C)c4c3CN(c3ccc(C(=O)N(C)C)cc3)C[C@@H]4C)cc2)C1 (single isomer, unassigned) [Example 713, (S)-5-(4-(dimethylcarbamoyl)phenyl)-1-isopropyl-7-methyl-N-(4-((R*)-3-methyl-3-(methylamino)pyrrolidine-1-carboxamido)benzyl)-4,5,6,7-tetrahydro-1H-pyrazolo[4,3-c]pyridine-3-carboxamide] | IC50 ([1]; Homo sapiens, 48 h, human whole blood, IL-13 10 ng/mL): 22 nM
4 |  |  |  | CNC1(C)CCN(C(=O)Nc2ccc(CNC(=O)c3nn(C(C)C)c4c3CN(c3ccc(C(=O)N(C)C)cc3)C[C@@H]4C)cc2)C1 (single isomer, unassigned) [Example 714, (S)-5-(4-(dimethylcarbamoyl)phenyl)-1-isopropyl-7-methyl-N-(4-((R*)-3-methyl-3-(methylamino)pyrrolidine-1-carboxamido)benzyl)-4,5,6,7-tetrahydro-1H-pyrazolo[4,3-c]pyridine-3-carboxamide] | IC50 ([1]; human whole blood, IL-13 10 ng/mL, 48 hours): 28 nM
 |  | 260 | 29 | CN(C)C(=O)Nc1ccc(CNC(=O)c2nn(C)c3c2CN(c2ccc(C(=O)N(C)C)cn2)CC3)cc1 [Example 14, 5-(5-(dimethylcarbamoyl)pyridin-2-yl)-N-(4-(3,3-dimethylureido)benzyl)-1-methyl-4,5,6,7-tetrahydro-1H-pyrazolo[4,3-c]pyridine-3-carboxamide] | 
 |  | 1160 | 159 | CNC(=O)c1ccc(CNC(=O)c2nn(C)c3c2CN(c2ccc(C(=O)N(C)C)cn2)CC3)cc1 [Example 15, 5-(5-(dimethylcarbamoyl)pyridin-2-yl)-1-methyl-N-(4-(methylcarbamoyl)benzyl)-4,5,6,7-tetrahydro-1H-pyrazolo[4,3-c]pyridine-3-carboxamide] | 
